Data reported in PMC9586926, “An efflux-susceptible antibiotic-adjuvant with systemic efficacy against mouse infections” (Scientific Reports, 2022).
Where a SMILES comes first, the peptide text is derived from it. [ ]: non-standard residue; d: D form. The star is where a group is joined. 12Ado = NCCCCCCCCCCCC(=O)O; Decanoyl = CCCCCCCCCC(=O)*; Dab = NCC[C@H](N)C(=O)O

Columns and labels:
E. coli 25922 [1] = assay: Outer membrane permeabilization, NPN fluorescence; type: cell-based, Escherichia coli
Procedure: Lipopeptides ability to permeabilize the OM was evaluated using fluorescent measurements of N-phenyl-1-naphthylamine (NPN)[67]. 200 µl of an over-night culture were diluted into 10 ml of fresh LB medium and incubated at 37 °C with shaking until reaching O.D.600 nm = 0.5. The culture was then centrifuged at 10,000 RCF for 3 min, the supernatant aspirated, and the pellet resuspended in equal volume of 5 mM HEPES containing 5 mM glucose (pH = 7.2). This suspension was then mixed with NPN (5 mM in acetone) to reach a final NPN concentration of 10 µM. Then, 190 µl of this mixture were dispensed into black microtiter plates, mixed with 10 µl of HEPES containing serial twofold dilutions of lipopeptides and fluorescence (excitation: 360 nm; emission: 460 nm) was recorded immediately for up to 10 min at 37 °C with shaking[29] (BioTek Instruments Synergy HT; Winooski, VT, USA). In a modified version of this assay, in which efflux was inhibited, bacteria (similarly prepared) were incubated with the lipopeptides in presence or absence of 100 µM CCCP for 5 min. Samples were then twice centrifuged at 10,000 RCF for 3 min, the supernatant aspirated, and the pellet resuspended in equal volume of 5 mM HEPES containing 20 mM glucose (pH = 7.2), so as to re-energize the efflux machinery. NPN was then added (final concentration of 10 µM) and fluorescence was recorded immediately thereafter.

E. coli 25922 [2] = type: cell-based, Escherichia coli
Procedure: (§1) MIC was determined according to the broth microdilution method: antimicrobials were subjected to serial twofold dilutions in LB medium, and incubated with 5 × 10^5 CFU/ml of bacteria (final volume of 200 µl) for 18–24 h at 37 °C. Then, O.D.620 nm was measured (BioTek Instruments Synergy HT; Winooski, VT, USA), and the MIC was defined as the lowest antimicrobial concentration for which no increase in O.D.620 nm was evident, compared to the untreated control.
(§2) Lipopeptides and antibiotics combinations were assessed using a modified version of the checkerboard titration method: Antibiotics MIC was determined in LB medium containing sub-inhibitory lipopeptide concentrations. The sensitization factor (SF)[46] was then calculated by SF = MICA/MICC, where “MICA” is the antibiotic MIC in absence of an adjuvant and “MICC “ is the antibiotic MIC in presence of an adjuvant, for a specified adjuvant concentration. Combinations were classified as synergistic when antibiotics MIC were decreased by > 4 folds. Alternatively, the fractional inhibitory concentration index (FICI) was calculated by FICI = MICC1/MICA1 + MICC2/MICA2, where “MICC1” and “MICC2” respectively specify the antibiotic and the adjuvant MIC values upon their combination, whereas “MICA1” and “MICA2” respectively specify the antibiotic and the adjuvant MIC values when tested individually. Combinations were classified as synergistic for FICI < 0.5.

E. coli 25922 [3] = assay: Cytoplasmic membrane depolarization, DiSC3(5) fluorescence; type: cell-based, Escherichia coli; details: C10BBc12B up to 10 µM; PMB 2.5 µM
Procedure: Lipopeptides aptitude to depolarize the CM was evaluated using fluorescent measurements of the transmembrane potential sensitive dye 3,3′-Dipropylthiadicarbocyanine iodide (DiSC3(5))[69]. Bacteria (O.D.600 nm = 0.1) were washed by centrifugation at 10,000 RCF for 5 min, supernatant aspiration, and pellet resuspension in 5 mM HEPES containing 20 mM glucose, 50 mM KCl and 0.2 mM EDTA (pH = 7.2). This suspension was mixed with DiSC3(5) (400 µM in DMSO) to reach a final DiSC3(5) concentration of 4 µM and was incubated in the dark for 1 h at 37 °C with shaking. Then, 180 µl of this mixture were dispensed into black microtiter plates and fluorescence was recorded (excitation: 622 nm; emission: 670 nm) at 37 °C with shaking until baseline stabilization (BioTek Instruments Synergy HT; Winooski, VT, USA). Finally, 20 µl of HEPES containing serial twofold dilutions of lipopeptides were added and fluorescence was recorded for up to 30 min at the same conditions.

P. aeruginosa = assay: MIC, broth microdilution; type: cell-based, Pseudomonas aeruginosa; details: broth microdilution in LB, 18–24 h, 37 °C; n = 3 strains
Description: Bacteria used in this study consisted of standard American Type Culture Collection (ATCC; Biological Industries, Beit Haemek, Israel) strains, clinically isolated (CI; Sourasky Medical Center, Tel Aviv, Israel) strains, as well as isogenic mutant strains. Gram-negative bacteria included Acinetobacter baumannii ATCC 19606; Escherichia coli ATCC 25922, 35218, CFT073, CI 14384, 16327, and the isogenic pair Ag100 (wild-type) and its efflux deficient mutant Ag100a (ΔacrAB); Klebsiella pneumoniae CI 1287, 224; Pseudomonas aeruginosa ATCC 27853, CI 1278, 8634; Salmonella enterica serovar Typhimurium ATCC 14028 (wild-type) and its isogenic efflux deficient mutant ΔacrAB. Bacteria were grown in Luria–Bertani broth (LB; 5 g/l NaCl, 5 g/l yeast extract, 10 g/l tryptone; pH = 7.0) at 37 °C with shaking. Over-night cultures were diluted 10-folds into fresh growth-medium and incubated at 37 °C with shaking until reaching mid-logarithmic phase. Then, bacterial concentrations were adjusted using O.D.600 nm measurements, and bacteria were subjected to the experimental procedures listed herein.
as §1

murine RBC = assay: Hemolysis; type: cell-based; details: 1% hematocrit murine RBC, 3 h, 37 °C
Procedure: Permeabilization of red blood cells (RBC) was evaluated using absorbance measurements of extracellular hemoglobin. Serial twofold dilutions of lipopeptides were incubated with 1% hematocrit of murine RBC for 3 h at 37 °C with shaking. Samples were then centrifuged at 20,000 RCF for 5 min, and absorbance of the supernatants was measured at 450 nm (BioTek Instruments Synergy HT; Winooski, VT, USA). Percent hemolysis was then calculated by (AS − AN)/(AP − AN) × 100; where AS, AN, and AP represent the absorbance of the sample, negative control (PBS) and positive control (Milli-Q water), respectively. LC50 values were extracted from trend-lines generated for linear-regions of plots correlating lipopeptide concentrations and percent hemolysis.

[4] = Acute toxicity, maximal tolerated dose; type: in vivo, mice; details: S.C., up to 40 mg/kg, seven-day monitoring
Procedure: The study is reported in accordance with ARRIVE guidelines.
The maximal tolerated dose (MTD) was determined after sub-cutaneous (S.C.) administration of lipopeptides solutions (0.2 ml). Mice (N = 3 per group) were monitored for up to 7 days and their physiological condition was scored on a scale of 1 to 6, in which a score of 1 indicates no apparent signs of distress, and a score of 6 signifies severe distress necessitating the mice immediate euthanasia.

K. pneumoniae 1287 = assay: Combination with antibiotics, modified checkerboard titration; type: cell-based, Klebsiella pneumoniae
Procedure: as §1, §2

CCCCCCCCCC(=O)N[C@@H](CCN)C(=O)N[C@@H](CCN)C(=O)NCCCCCCCCCCCC(=O)N[C@@H](CCN)C(N)=O [C10BBc12B, decanoyl-bis.diaminobutyrate-aminododecanoyl-diaminobutyrate-amide] (Decanoyl-[Dab][Dab][12Ado][Dab]-NH2)
reduction of NPN fluorescence by 10 mM MgCl2 (E. coli 25922 [1]): almost complete | relationship with EPI PAβN in rifampin potentiation (E. coli 25922 [2]; 10 µM C10BBc12B ± 5 µg/ml PAβN, SF for rifampin): antagonistic relationship | sensitization efficiency to rifampin (E. coli 25922 [2]; E. coli, from isobologram data): 65,000 folds | CM depolarization (trans-membrane potential) (E. coli 25922 [3]): unable to affect the trans-membrane potential | MIC P. aeruginosa (n=3) (P. aeruginosa): ≥ 50 µM | LC50 Erythrocytes (50% hemolysis) (murine RBC): > 50 µM | signs of distress [4]: no apparent physiological signs of distress | sensitization efficiency to rifampin (K. pneumoniae 1287): 130,000 folds
